Solubility data for three molecules are collected here from US10053416B1, “Process for producing long chain amino acids and dibasic acids” (VITAWORKS IP, LLC, priority 2017, dated 2018).

Each structure is given as a SMILES string. Structures can show the parent of a compound that is named as a salt.

The nature of data set [1]: Solubility curve in 5% aqueous solution of ammonium hydroxide (FIG. 4). The note with it: as a function of temperature (FIG. 4). The format is physicochemical. An excerpt: FIG. 4. Solubility curve of 11-aminoundecanoic acid and dodecanedioic acid in 5% aqueous solution of ammonium hydroxide.
In one embodiment of the present invention, schematically illustrated in FIG. 1, the solution or suspension is further cooled to crystallize the long chain amino acid, which can be recovered by means of solid-liquid separation to provide a mother liquor containing the ammonium or alkylamine salts of long chain dibasic acid and alkanoic acid. […] The three components in the mother liquor, i.e., alkylamine, dodecanedioic acid, and alkanoic acid, can be separated according to one of the following three methods.

Data set [2] is described as follows: Solubility / phase separation observation in water and aqueous salt solutions. The format is physicochemical. Here is the method: If there are long chain fatty acids present in the starting material, these fatty acids are precipitated as the ammonium salt, along with the long chain amino acid. In the production of 11-aminoundecanoic acid and dodecanedioic acid from the starting material of castor oil, significant amount of stearic acid is present in the mixed amide derivatives. […] If ammonia or ammonium hydroxide is used as the basic agent to neutralize sulfuric acid, and after more basic agent is added to the mother liquor to a basic pH, alkylamine can only be recovered by extraction. Distillation of the basic solution will remove ammonia instead of alkylamine. […] No phase separation is observed between hexylamine and a solution of ammonium sulfate.

Consider `O=C(O)CCCCCCCCCCC(=O)O` [ammonium salt of dodecanedioic acid, dodecanedioic acid], for which, in data set [1], the Solubility entry is “soluble and becomes more soluble as temperature increases”.
For `CCCCCCN` [hexylamine], the Solubility result is reported as “insoluble” in data set [2] (in a solution of alkali salt); “freely soluble” in data set [2] (in a solution of ammonium salt, i.e., ammonium sulfate); “insoluble” in data set [2] (in water).
For the molecule `NCCCCCCCCCCC(=O)O` [11-aminoundecanoic acid], the Solubility result in data set [1] is recorded as “nearly insoluble”.
